According to ChEMBL document CHEMBL4507290 (2021):

Tests used:
[1] = target: Serine/threonine-protein kinase Sgk1 (Homo sapiens) (UniProt O00141); details: Compound concentration 1000.0 nM
[2] = target: Activin receptor type-2A (Homo sapiens) (UniProt P27037); details: Compound concentration 1000.0 nM
[3] = target: Mitogen-activated protein kinase kinase kinase 5 (Homo sapiens) (UniProt Q99683); details: Compound concentration 1000.0 nM
[4] = tested on: Mast/stem cell growth factor receptor Kit (Homo sapiens), P10721 [V559D,V654A]; details: Compound concentration 1000.0 nM
[5] = tested on: Phosphatidylinositol 4,5-bisphosphate 3-kinase catalytic subunit alpha isoform (Homo sapiens), P42336 [E542K]; details: Compound concentration 1000.0 nM
[6] = target: Misshapen-like kinase 1 (Homo sapiens) (UniProt Q8N4C8); details: Compound concentration 1000.0 nM
[7] = target: Cyclin-dependent kinase 19 (Homo sapiens) (UniProt Q9BWU1); details: Compound concentration 1000.0 nM
[8] = target: Phosphatidylinositol 4-kinase beta (Homo sapiens) (UniProt Q9UBF8); details: Compound concentration 1000.0 nM
[9] = target: Dual serine/threonine and tyrosine protein kinase (Homo sapiens) (UniProt Q6XUX3); details: Compound concentration 1000.0 nM
[10] = target: D(3) dopamine receptor (Homo sapiens) (UniProt P35462); details: Compound concentration 10.0 uM
[11] = target: Tyrosine-protein kinase BTK (Homo sapiens) (UniProt Q06187); details: Compound concentration 1000.0 nM
[12] = target: Bone morphogenetic protein receptor type-2 (Homo sapiens) (UniProt Q13873); details: Compound concentration 1000.0 nM
[13] = target: Serine/threonine-protein kinase OSR1 (Homo sapiens) (UniProt O95747); details: Compound concentration 1000.0 nM
Chain of Serine/threonine-protein kinase OSR1 (Homo sapiens) (O95747 2-527 limits assumed): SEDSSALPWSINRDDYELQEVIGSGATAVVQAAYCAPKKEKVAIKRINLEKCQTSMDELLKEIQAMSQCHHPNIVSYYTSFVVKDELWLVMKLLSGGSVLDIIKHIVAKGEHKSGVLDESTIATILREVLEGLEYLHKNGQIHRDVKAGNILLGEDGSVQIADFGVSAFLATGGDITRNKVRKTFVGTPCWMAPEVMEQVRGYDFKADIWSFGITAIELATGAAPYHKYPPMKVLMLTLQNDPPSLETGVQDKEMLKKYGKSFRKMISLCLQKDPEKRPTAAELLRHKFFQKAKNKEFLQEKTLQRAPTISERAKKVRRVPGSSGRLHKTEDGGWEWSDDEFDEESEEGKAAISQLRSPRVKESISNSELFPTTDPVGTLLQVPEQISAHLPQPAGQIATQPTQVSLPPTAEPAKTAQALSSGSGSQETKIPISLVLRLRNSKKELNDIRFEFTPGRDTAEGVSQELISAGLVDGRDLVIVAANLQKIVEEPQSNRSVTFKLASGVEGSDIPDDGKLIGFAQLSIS

[14] = target: Phosphorylase b kinase regulatory subunit alpha, liver isoform (Homo sapiens) (UniProt P46019); details: Compound concentration 1000.0 nM
[15] = target: Cyclin-dependent kinase 18 (Homo sapiens) (UniProt Q07002); details: Compound concentration 1000.0 nM
[16] = target: Rhodopsin kinase GRK7 (Homo sapiens) (UniProt Q8WTQ7); details: Compound concentration 1000.0 nM
[17] = tested on: Receptor-type tyrosine-protein kinase FLT3 (Homo sapiens), P36888 [D835H]; details: Compound concentration 1000.0 nM
[18] = target: Tyrosine-protein kinase Srms (Homo sapiens) (UniProt Q9H3Y6); details: Compound concentration 1000.0 nM
[19] = target: LIM domain kinase 1 (Homo sapiens) (UniProt P53667); details: Compound concentration 1000.0 nM
[20] = target: Serine/threonine-protein kinase MRCK beta (Homo sapiens) (UniProt Q9Y5S2); details: Compound concentration 1000.0 nM
[21] = target: Sigma intracellular receptor 2 (Homo sapiens) (UniProt Q5BJF2); details: Compound concentration 10.0 uM
[22] = target: G protein-coupled receptor kinase 4 (Homo sapiens) (UniProt P32298); details: Compound concentration 1000.0 nM
Chain of G protein-coupled receptor kinase 4 (Homo sapiens) (P32298 whole entry, looked up): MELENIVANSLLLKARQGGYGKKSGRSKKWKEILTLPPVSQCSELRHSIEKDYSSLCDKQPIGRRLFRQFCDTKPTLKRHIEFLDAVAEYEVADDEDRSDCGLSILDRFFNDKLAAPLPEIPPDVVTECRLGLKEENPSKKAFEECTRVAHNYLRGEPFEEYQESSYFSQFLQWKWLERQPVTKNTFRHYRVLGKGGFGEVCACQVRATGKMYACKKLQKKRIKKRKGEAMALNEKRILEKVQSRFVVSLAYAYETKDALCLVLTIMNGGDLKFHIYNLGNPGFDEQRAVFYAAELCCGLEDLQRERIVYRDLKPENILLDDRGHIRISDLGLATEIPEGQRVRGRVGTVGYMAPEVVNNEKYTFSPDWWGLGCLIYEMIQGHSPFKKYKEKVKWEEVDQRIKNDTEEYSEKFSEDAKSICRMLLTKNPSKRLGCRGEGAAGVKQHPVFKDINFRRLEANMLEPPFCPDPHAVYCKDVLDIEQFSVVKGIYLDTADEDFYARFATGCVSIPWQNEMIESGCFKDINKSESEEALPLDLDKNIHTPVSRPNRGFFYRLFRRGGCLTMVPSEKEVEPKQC

[23] = target: Serine/threonine-protein kinase MARK1 (Homo sapiens) (UniProt Q9P0L2); details: Compound concentration 1000.0 nM
[24] = target: Serine/threonine-protein kinase 24 (Homo sapiens) (UniProt Q9Y6E0); details: Compound concentration 1000.0 nM
Chain of Serine/threonine-protein kinase 24 (Homo sapiens) (Q9Y6E0 whole entry, looked up): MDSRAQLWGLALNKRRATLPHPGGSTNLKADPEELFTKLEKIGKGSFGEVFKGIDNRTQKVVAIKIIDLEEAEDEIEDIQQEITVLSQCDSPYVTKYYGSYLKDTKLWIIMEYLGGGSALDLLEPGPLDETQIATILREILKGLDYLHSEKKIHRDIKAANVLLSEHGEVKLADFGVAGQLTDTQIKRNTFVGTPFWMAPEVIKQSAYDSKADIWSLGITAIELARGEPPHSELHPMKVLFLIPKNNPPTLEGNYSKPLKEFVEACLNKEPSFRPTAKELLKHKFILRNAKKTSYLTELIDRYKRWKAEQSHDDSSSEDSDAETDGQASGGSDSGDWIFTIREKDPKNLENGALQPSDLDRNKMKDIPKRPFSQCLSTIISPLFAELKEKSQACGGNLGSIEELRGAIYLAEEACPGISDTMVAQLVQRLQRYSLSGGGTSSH

[25] = target: Myosin light chain kinase, smooth muscle (Homo sapiens) (UniProt Q15746); details: Compound concentration 1000.0 nM
[26] = target: Serine/threonine-protein kinase 38 (Homo sapiens) (UniProt Q15208); details: Compound concentration 1000.0 nM
[27] = target: Cyclin-dependent kinase 4 (Homo sapiens) (UniProt P11802); details: Compound concentration 1000.0 nM
Chain of Cyclin-dependent kinase 4 (Homo sapiens) (P11802 whole entry): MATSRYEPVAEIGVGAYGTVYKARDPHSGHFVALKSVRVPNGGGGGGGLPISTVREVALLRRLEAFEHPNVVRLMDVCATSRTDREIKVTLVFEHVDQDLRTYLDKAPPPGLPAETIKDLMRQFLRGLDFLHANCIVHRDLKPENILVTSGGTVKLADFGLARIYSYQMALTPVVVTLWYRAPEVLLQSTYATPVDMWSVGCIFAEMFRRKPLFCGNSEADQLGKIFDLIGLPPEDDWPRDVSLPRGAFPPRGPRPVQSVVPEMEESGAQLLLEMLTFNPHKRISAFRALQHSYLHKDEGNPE

[28] = target: Beta-2 adrenergic receptor (Homo sapiens) (UniProt P07550); details: Compound concentration 10.0 uM
[29] = target: Atypical kinase COQ8A, mitochondrial (Homo sapiens) (UniProt Q8NI60); details: Compound concentration 1000.0 nM
Chain of Atypical kinase COQ8A, mitochondrial (Homo sapiens) (Q8NI60 163-647 limits assumed): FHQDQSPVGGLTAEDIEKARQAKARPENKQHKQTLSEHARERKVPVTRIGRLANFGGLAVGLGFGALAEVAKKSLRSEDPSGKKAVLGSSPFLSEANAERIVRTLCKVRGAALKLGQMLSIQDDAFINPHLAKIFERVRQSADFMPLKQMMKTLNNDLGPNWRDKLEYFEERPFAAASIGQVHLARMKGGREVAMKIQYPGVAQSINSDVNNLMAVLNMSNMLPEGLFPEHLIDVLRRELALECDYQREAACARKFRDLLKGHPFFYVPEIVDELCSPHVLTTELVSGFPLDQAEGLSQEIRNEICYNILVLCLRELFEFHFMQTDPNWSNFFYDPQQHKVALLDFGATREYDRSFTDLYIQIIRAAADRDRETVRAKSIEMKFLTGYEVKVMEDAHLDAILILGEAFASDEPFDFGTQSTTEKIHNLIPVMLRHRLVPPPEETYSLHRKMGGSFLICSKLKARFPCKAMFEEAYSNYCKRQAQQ

[30] = target: Mitogen-activated protein kinase 12 (Homo sapiens) (UniProt P53778); details: Compound concentration 1000.0 nM
[31] = target: Serine/threonine-protein kinase PLK4 (Homo sapiens) (UniProt O00444); details: Compound concentration 1000.0 nM
[32] = target: Mitogen-activated protein kinase kinase kinase kinase 5 (Homo sapiens) (UniProt Q9Y4K4); details: Compound concentration 1000.0 nM
[33] = target: LIM domain kinase 2 (Homo sapiens) (UniProt P53671); details: Compound concentration 1000.0 nM
[34] = target: Ephrin type-A receptor 6 (Homo sapiens) (UniProt Q9UF33); details: Compound concentration 1000.0 nM
[35] = tested on: Epidermal growth factor receptor (Homo sapiens), P00533 [G719C]; details: Compound concentration 1000.0 nM
[36] = target: Tyrosine-protein kinase Fes/Fps (Homo sapiens) (UniProt P07332); details: Compound concentration 1000.0 nM
[37] = target: Atypical kinase COQ8B, mitochondrial (Homo sapiens) (UniProt Q96D53); details: Compound concentration 1000.0 nM
[38] = target: Ribosomal protein S6 kinase alpha-6 (Homo sapiens) (UniProt Q9UK32); details: Compound concentration 1000.0 nM
[39] = target: Ribosomal protein S6 kinase alpha-1 (Homo sapiens) (UniProt Q15418); details: Compound concentration 1000.0 nM
[40] = target: Calcium/calmodulin-dependent protein kinase type II subunit delta (Homo sapiens) (UniProt Q13557); details: Compound concentration 1000.0 nM
[41] = target: 1-phosphatidylinositol 3-phosphate 5-kinase (Homo sapiens) (UniProt Q9Y2I7); details: Compound concentration 1000.0 nM
Chain of 1-phosphatidylinositol 3-phosphate 5-kinase (Homo sapiens) (Q9Y2I7 whole entry): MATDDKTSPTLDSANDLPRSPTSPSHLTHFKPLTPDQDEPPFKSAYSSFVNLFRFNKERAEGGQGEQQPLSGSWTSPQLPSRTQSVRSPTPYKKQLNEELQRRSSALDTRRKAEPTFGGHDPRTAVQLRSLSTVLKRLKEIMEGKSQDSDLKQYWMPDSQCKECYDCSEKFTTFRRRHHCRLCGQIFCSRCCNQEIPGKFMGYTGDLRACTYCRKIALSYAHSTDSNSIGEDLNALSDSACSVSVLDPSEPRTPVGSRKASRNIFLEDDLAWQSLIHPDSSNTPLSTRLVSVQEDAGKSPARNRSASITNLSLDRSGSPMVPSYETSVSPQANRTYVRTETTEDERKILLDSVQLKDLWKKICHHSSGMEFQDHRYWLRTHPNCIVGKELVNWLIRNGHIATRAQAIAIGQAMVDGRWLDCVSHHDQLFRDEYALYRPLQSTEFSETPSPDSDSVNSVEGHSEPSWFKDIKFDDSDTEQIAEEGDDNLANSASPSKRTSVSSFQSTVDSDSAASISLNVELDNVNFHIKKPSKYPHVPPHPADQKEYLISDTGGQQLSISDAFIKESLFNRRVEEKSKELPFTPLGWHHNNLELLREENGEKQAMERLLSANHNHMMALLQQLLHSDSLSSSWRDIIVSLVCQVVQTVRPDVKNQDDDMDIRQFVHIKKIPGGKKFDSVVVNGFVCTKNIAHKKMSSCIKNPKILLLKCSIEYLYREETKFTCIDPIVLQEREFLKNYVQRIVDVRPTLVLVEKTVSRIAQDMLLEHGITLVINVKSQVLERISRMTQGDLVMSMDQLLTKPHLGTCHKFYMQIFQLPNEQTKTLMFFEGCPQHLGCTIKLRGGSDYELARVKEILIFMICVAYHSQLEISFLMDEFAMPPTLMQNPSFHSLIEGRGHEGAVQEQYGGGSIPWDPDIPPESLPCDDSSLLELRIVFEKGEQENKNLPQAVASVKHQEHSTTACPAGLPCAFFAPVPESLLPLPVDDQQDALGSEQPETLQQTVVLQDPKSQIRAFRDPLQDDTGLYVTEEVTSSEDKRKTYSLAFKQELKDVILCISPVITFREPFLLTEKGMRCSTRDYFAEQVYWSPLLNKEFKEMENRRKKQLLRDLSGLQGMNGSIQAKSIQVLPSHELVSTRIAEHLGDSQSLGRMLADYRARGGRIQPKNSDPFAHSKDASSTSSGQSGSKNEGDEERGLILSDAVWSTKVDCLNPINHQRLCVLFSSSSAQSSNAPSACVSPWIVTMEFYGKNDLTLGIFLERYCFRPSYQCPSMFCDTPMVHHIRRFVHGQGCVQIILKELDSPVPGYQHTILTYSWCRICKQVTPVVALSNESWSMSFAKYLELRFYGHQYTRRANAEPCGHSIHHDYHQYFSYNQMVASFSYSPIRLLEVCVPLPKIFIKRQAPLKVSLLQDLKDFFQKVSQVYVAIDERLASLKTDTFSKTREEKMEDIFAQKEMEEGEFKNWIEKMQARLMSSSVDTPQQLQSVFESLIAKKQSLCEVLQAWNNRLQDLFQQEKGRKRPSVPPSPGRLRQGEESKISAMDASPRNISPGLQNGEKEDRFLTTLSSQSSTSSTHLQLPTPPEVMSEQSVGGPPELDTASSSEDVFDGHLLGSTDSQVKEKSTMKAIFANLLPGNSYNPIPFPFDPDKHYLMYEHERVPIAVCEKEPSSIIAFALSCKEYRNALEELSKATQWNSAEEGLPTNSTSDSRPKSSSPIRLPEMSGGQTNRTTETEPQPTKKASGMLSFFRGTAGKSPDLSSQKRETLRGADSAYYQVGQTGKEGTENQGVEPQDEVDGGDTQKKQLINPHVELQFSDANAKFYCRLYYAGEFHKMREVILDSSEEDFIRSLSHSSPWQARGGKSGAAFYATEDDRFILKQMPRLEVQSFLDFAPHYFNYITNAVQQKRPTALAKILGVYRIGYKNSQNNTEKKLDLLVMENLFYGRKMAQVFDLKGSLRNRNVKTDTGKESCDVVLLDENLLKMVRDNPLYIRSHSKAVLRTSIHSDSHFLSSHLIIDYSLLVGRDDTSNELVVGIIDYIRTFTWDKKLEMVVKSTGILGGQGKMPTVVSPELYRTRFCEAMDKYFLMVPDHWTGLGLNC

[42] = tested on: Mast/stem cell growth factor receptor Kit (Homo sapiens), P10721 [V559D]; details: Compound concentration 1000.0 nM
[43] = target: Calcium-dependent protein kinase 1 (Plasmodium falciparum) (UniProt P62344); details: Compound concentration 1000.0 nM
Chain of Calcium-dependent protein kinase 1 (Plasmodium falciparum) (P62344 2-524 limits assumed): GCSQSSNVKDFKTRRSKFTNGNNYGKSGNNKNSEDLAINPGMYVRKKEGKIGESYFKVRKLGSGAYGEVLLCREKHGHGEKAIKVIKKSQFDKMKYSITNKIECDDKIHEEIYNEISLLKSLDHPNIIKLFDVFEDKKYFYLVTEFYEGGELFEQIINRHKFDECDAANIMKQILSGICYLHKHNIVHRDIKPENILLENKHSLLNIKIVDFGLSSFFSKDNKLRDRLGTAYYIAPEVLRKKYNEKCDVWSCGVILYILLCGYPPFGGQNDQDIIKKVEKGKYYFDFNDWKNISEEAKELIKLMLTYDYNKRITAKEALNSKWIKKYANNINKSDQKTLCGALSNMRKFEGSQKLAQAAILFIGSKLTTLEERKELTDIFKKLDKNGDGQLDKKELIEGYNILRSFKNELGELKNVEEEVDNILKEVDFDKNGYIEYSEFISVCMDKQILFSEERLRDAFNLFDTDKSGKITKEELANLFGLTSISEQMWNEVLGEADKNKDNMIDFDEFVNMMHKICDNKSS

[44] = target: Aurora kinase A (Homo sapiens) (UniProt O14965); details: Compound concentration 1000.0 nM
[45] = target: Activated CDC42 kinase 1 (Homo sapiens) (UniProt Q07912); details: Compound concentration 1000.0 nM
[46] = tested on: Mast/stem cell growth factor receptor Kit (Homo sapiens), P10721 [D816V]; details: Compound concentration 1000.0 nM

CN([C@@H]1CCc2c(CC(=O)O)c3cc(S(C)(=O)=O)ccc3n2C1)S(=O)(=O)c1ccc(F)cc1
inactive: residual activity [1] 100% | residual activity [2] 100% | residual activity [3] 90% | residual activity [4] 100% | residual activity [5] 88% | residual activity [6] 92% | residual activity [7] 100% | residual activity [8] 98% | residual activity [9] 77% | inhibition [10] -5.72% | residual activity [11] 90% | residual activity [12] 100% | residual activity [13] 100% | residual activity [14] 100% | residual activity [15] 100% | residual activity [16] 97% | residual activity [17] 76% | residual activity [18] 88% | residual activity [19] 100% | residual activity [20] 100% | inhibition [21] -9.3% | residual activity [22] 100% | residual activity [23] 89% | residual activity [24] 100% | residual activity [25] 94% | residual activity [26] 85% | residual activity [27] 93% | inhibition [28] 0.0525% | residual activity [29] 87% | residual activity [30] 100% | residual activity [31] 100% | residual activity [32] 100% | residual activity [33] 100% | residual activity [34] 91% | residual activity [35] 98% | residual activity [36] 92% | residual activity [37] 100% | residual activity [38] 71% | residual activity [39] 100% | residual activity [40] 100% | residual activity [41] 97% | residual activity [42] 92% | residual activity [43] 75% | residual activity [44] 100% | residual activity [45] 92% | residual activity [46] 95%

CN([C@@H]1CCc2c(CC(=O)O)c3ccccc3n2C1)S(=O)(=O)c1ccc(F)cc1 [MK-7246]
inactive: residual activity [1] 100% | residual activity [2] 100% | residual activity [3] 100% | residual activity [4] 100% | residual activity [5] 86% | residual activity [6] 100% | residual activity [7] 94% | residual activity [8] 100% | residual activity [9] 82% | inhibition [10] -4.25% | residual activity [11] 86% | residual activity [12] 100% | residual activity [13] 100% | residual activity [14] 100% | residual activity [15] 100% | residual activity [16] 93% | residual activity [17] 91% | residual activity [18] 81% | residual activity [19] 100% | residual activity [20] 100% | inhibition [21] -9.73% | residual activity [22] 100% | residual activity [23] 100% | residual activity [24] 100% | residual activity [25] 100% | residual activity [26] 100% | residual activity [27] 100% | inhibition [28] -7.68% | residual activity [29] 100% | residual activity [30] 94% | residual activity [31] 100% | residual activity [32] 100% | residual activity [33] 100% | residual activity [34] 91% | residual activity [35] 100% | residual activity [36] 79% | residual activity [37] 100% | residual activity [38] 100% | residual activity [39] 100% | residual activity [40] 100% | residual activity [41] 100% | residual activity [42] 100% | residual activity [43] 90% | residual activity [44] 100% | residual activity [45] 100% | residual activity [46] 100%
